pIC50: −log10 of the molar value. Where a name gives a salt, the structure may show the parent alone.
Each compound was assayed on PMS1 (assay: Mini-Gene Reporter Assay—PMS1 (firefly luciferase mini-gene reporter transiently transfected into HEK293 cells)). Conditions: Homo sapiens; at 5 uM; mini-gene firefly luciferase reporter in HEK293 cells; read-out: PMS1 % Effect at 5 uM.
Assay type: cell-based
How it was run: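 Luminescence (RLU) read-out of exon inclusion: compound dilutions, tested in duplicate, act on transiently transfected HEK293 cells carrying a firefly luciferase reporter fused downstream of the PMS1 skipped-exon region. Potency derived by Levenberg-Marquardt curve fitting, with percent effect at 5 μM.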

Row | Compound | activation at 5 µM
1 | CCOc1cc2nc(C)cn2cc1C(=O)Nc1cnc(N2CC[C@@H](C)[C@@H](NC)C2)cn1 [Compound 671] | < 50%
2 | CCOc1cc2nc(C)cn2cc1C(=O)Nc1cnc(N2C[C@@H](F)C[C@H]2CN)cn1 [Compound 672] | 50 to 75%
3 | CCOc1cc2nc(C)cn2cc1C(=O)Nc1cnc(N2CCC3(CNCCO3)C2)cn1 (stereo not shown) [Compound 673] | < 50%
4 | CCOc1cc2nc(C)cn2cc1C(=O)Nc1cnc(NCC2(F)CCNC2)cn1 (stereo not shown) [Compound 674] | 50 to 75%
5 | CCOc1cc2nc(C)cn2cc1C(=O)Nc1cnc(N2CCOC3(CCNC3)C2)cn1 (stereo not shown) [Compound 676] | 50 to 75%
6 | CCOc1cc2nc(C)cn2cc1C(=O)Nc1cnc(N2CC(N)C3(CC3)C2)cn1 (stereo not shown) [Compound 678] | > 75%
7 | CCOc1cc2nc(C)cn2cc1C(=O)Nc1cnc(NCc2cccc(CNC)c2)cn1 [Compound 679] | < 50%
8 | CCOc1cc2nc(C)cn2cc1C(=O)Nc1cnc(N2CCC3(CC2)CNCCO3)cn1 [Compound 683] | < 50%
9 | CCOc1cc2nc(C)cn2cc1C(=O)Nc1cnc(N2CCC3(CCNCC3)C2)cn1 [Compound 685] | 50 to 75%
10 | CCOc1cc2nc(C)cn2cc1C(=O)Nc1cnc(N2C3CCC2CNC3)cn1 [Compound 686] | > 75%
11 | CCNCC1CCN(c2cnc(NC(=O)c3cn4cc(C)nc4cc3OCC)cn2)CC1 [Compound 687] | > 75%
12 | CCOc1cc2nc(C)cn2cc1C(=O)Nc1cnc(N2CCC(NC)C2)cn1 (stereo not shown) [Compound 688] | > 75%
13 | CCOc1cc2nc(C)cn2cc1C(=O)Nc1cnc(N2CCCC(NC)C2)cn1 (stereo not shown) [Compound 690] | 50 to 75%
14 | CCOc1cc2nc(C)cn2cc1C(=O)Nc1cnc(N2CCC(NC)CC2)cn1 [Compound 691] | > 75%
15 | CCOc1cc2nc(C)cn2cc1C(=O)Nc1cnc(N2CCNC[C@H]2C)cn1 [Compound 692] | > 75%
16 | CCOc1cc2nc(C)cn2cc1C(=O)Nc1cnc(N2CCNCC2)cn1 [Compound 693] | > 75%
17 | CCOc1cc2nc(C)cn2cc1C(=O)Nc1cnc(N2CCC(N)C2)cn1 (stereo not shown) [Compound 694] | > 75%
18 | CCOc1cc2nc(C)cn2cc1C(=O)Nc1cnc(N2CCC(N)CC2)cn1 [Compound 695] | > 75%
19 | CCOc1cc2nc(C)cn2cc1C(=O)Nc1cnc(N[C@H]2CCNC2)cn1 [Compound 696] | 50 to 75%
20 | CCOc1cc2nc(C)cn2cc1C(=O)Nc1cnc(N2CCNCC2C)cn1 (stereo not shown) [Compound 697] | > 75%
21 | CCOc1cc2nc(C)cn2cc1C(=O)Nc1cnc(N2CCNC(C)C2)cn1 (stereo not shown) [Compound 698] | > 75%
22 | CCOc1cn2nc(C)cc2cc1C(=O)Nc1cnc(N2CCN[C@@H](C)C2)cn1 [Compound 701, 6-ethoxy-2-methyl-N-{5-[(3S)-3-methylpiperazin-1-yl]pyrazin-2-yl}pyrazolo[1,5-a]pyridine-5-carboxamide] | > 75%

Same assay, conditions: Homo sapiens; mini-gene firefly luciferase reporter in HEK293 cells

Row | Compound | pIC50
23 | CCOc1cc2nc(C)cn2cc1C(=O)Nc1cnc(N2CCN[C@@H](C)C2)cn1 [Compound 700, 7-ethoxy-2-methyl-N-5-[(3S)-3-methylpiperazin-1-yl]pyrazin-2-ylimidazo[1,2-a]pyridine-6-carboxamide] | > 6.00
24 | CCOc1cc2nc(C)cn2cc1C(=O)Nc1ccc(N2CCN[C@@H](C)C2)cc1F [Compound 702, 7-ethoxy-N-2-fluoro-4-[(3S)-3-methylpiperazin-1-yl]phenyl-2-methylimidazo[1,2-a]pyridine-6-carboxamide] | > 6.00
25 | CCOc1cc2nc(C)cn2cc1C(=O)Nc1ccc(N2CCNC3(CC3)C2)cc1F [Compound 704, N-(4-4,7-diazaspiro[2.5]octan-7-yl-2-fluorophenyl)-7-ethoxy-2-methylimidazo[1,2-a]pyridine-6-carboxamide] | > 6.00
26 | Cc1cn2cc(C(=O)Nc3ccc(N4CCN[C@@H](C)C4)cc3F)c(OC3CCC3)cc2n1 [Compound 705, 7-cyclobutoxy-N-2-fluoro-4-[(3S)-3-methylpiperazin-1-yl]phenyl-2-methylimidazo[1,2-a]pyridine-6-carboxamide] | > 6.00
27 | CCOc1cc2nn(C)cc2cc1C(=O)Nc1ccc(C2=CCNCC2)nn1 [Compound 708, 6-ethoxy-2-methyl-N-(6-(1,2,3,6-tetrahydropyridin-4-yl)pyridazin-3-yl)-2H-indazole-5-carboxamide formate] | > 6.00
28 | CCOc1cc2nc(C)cn2cc1C(=O)Nc1ccc(C2=CCNCC2)nn1 [Compound 709, 7-ethoxy-2-methyl-N-(6-(1,2,3,6-tetrahydropyridin-4-yl)pyridazin-3-yl)imidazo[1,2-a]pyridine-6-carboxamide hydrochloride] | > 6.00
29 | CCOc1cc2nn(C)cc2cc1C(=O)Nc1cnc(N2CCN[C@@H](C)C2)cn1 [Compound 710, (S)-6-ethoxy-2-methyl-N-(5-(3-methylpiperazin-1-yl)pyrazin-2-yl)-2H-indazole-5-carboxamide formate] | > 6.00
30 | CCOc1nc2nc(C)cn2cc1C(=O)Nc1ccc(N2CCNCC2)cn1 [Compound 711, 7-ethoxy-2-methyl-N-(5-(piperazin-1-yl)pyridin-2-yl)imidazo[1,2-a]pyrimidine-6-carboxamide formate] | > 6.00
31 | Cc1cn2cc(C(=O)Nc3ccc(N4CCNCC4)cn3)c(OC3CC3)cc2n1 [Compound 712, 7-cyclopropoxy-2-methyl-N-(5-(piperazin-1-yl)pyridin-2-yl) imidazo[1,2-a]pyridine-6-carboxamide hydrochloride] | > 6.00
32 | COc1cc2nc(C)cn2cc1C(=O)Nc1ccc(N2CCN[C@@H](C)C2)nn1 [Compound 713, (S)-7-methoxy-2-methyl-N-(6-(3-methylpiperazin-1-yl)pyridazin-3-yl)imidazo[1,2-a]pyridine-6-carboxamide hydrochloride] | > 6.00
33 | CCOc1nc2nc(C)cn2cc1C(=O)Nc1ccc(N2C[C@@H](C)N[C@@H](C)C2)nn1 [Compound 714, N-(6-((3R,5S)-3,5-dimethylpiperazin-1-yl)pyridazin-3-yl)-7-ethoxy-2-methylimidazo[1,2-a]pyrimidine-6-carboxamide hydrochloride] | > 6.00
34 | CCOc1nc2nn(C)cc2cc1C(=O)Nc1ccc(N2CCNCC2)nn1 [Compound 715, 6-ethoxy-2-methyl-N-(6-(piperazin-1-yl)pyridazin-3-yl)-2H-pyrazolo[3,4-b]pyridine-5-carboxamide] | > 6.00
35 | CCOc1cc2nn(C)cc2cc1C(=O)Nc1cnc(N2CCN[C@@H](CC)C2)cn1 [Compound 716, (S)-6-ethoxy-N-(5-(3-ethylpiperazin-1-yl)pyrazin-2-yl)-2-methyl-2H-indazole-5-carboxamide HCl Salt] | > 6.00
36 | CCOc1cc2nn(C)cc2cc1C(=O)Nc1ccc(C2CCN[C@@H](C)C2)nn1 (stereo partly drawn) [Compound 717, 6-ethoxy-2-methyl-N-(6-((2S)-2-methylpiperidin-4-yl)pyridazin-3-yl)-2H-indazole-5-carboxamide] | > 6.00
37 | COc1cc2nc(C)cn2cc1C(=O)Nc1ccc(N2CCN[C@@H](C)C2)cn1 [Compound 718, (S)-7-methoxy-2-methyl-N-(5-(3-methylpiperazin-1-yl)pyridin-2-yl)imidazo[1,2-a]pyridine-6-carboxamide formate] | > 6.00
38 | CCOc1cc2nc(C)cn2cc1C(=O)Nc1cnc(N2C[C@@H](C)N[C@@H](C)C2)cn1 [Compound 719, N-(5-((3S,5R)-3,5-dimethylpiperazin-1-yl)pyrazin-2-yl)-7-ethoxy-2-methylimidazo[1,2-a]pyridine-6-carboxamide] | > 6.00
39 | CCOc1cc2nn(C)cc2cc1C(=O)Nc1cnc(N2C[C@@H](C)N[C@@H](C)C2)cn1 [Compound 720, N-(5-((3R,5S)-3,5-dimethylpiperazin-1-yl)pyrazin-2-yl)-6-ethoxy-2-methyl-2H-indazole-5-carboxamide hydrochloride] | > 6.00
40 | CCOc1nc2nc(C)cn2cc1C(=O)Nc1cnc(N2C[C@@H](C)N[C@@H](C)C2)cn1 [Compound 721, N-(5-((3R,5S)-3,5-dimethylpiperazin-1-yl)pyrazin-2-yl)-7-ethoxy-2-methylimidazo[1,2-a]pyrimidine-6-carboxamide hydrochloride] | 5.00 to 6.00
41 | CCOc1nc2nc(C)cn2cc1C(=O)Nc1cnc(N2CCN[C@@H](C)C2)cn1 [Compound 722, (S)-7-ethoxy-2-methyl-N-(5-(3-methylpiperazin-1-yl)pyrazin-2-yl)imidazo[1,2-a]pyrimidine-6-carboxamide formate] | 5.00 to 6.00
42 | CCOc1cc2nc(C)cn2cc1C(=O)Nc1ccc(N2CC[C@@H](NC(C)(C)C)C2)nn1 [Compound 723, (R)—N-(6-(3-(tert-butylamino)pyrrolidin-1-yl)pyridazin-3-yl)-7-ethoxy-2-methylimidazo[1,2-a]pyridine-6-carboxamide] | 5.00 to 6.00
43 | COc1cc2nc(C)cn2cc1C(=O)Nc1ccc(N2C[C@@H](C)N[C@@H](C)C2)cn1 [Compound 724, N-(5-((3R,5S)-3,5-dimethylpiperazin-1-yl)pyridin-2-yl)-7-methoxy-2-methylimidazo[1,2-a]pyridine-6-carboxamide] | 5.00 to 6.00
44 | CCOc1nc2nc(C)cn2cc1C(=O)Nc1ccc(N2CCNC3(CC3)C2)nn1 [Compound 725, N-(6-(4,7-diazaspiro[2.5]octan-7-yl)pyridazin-3-yl)-7-ethoxy-2-methylimidazo[1,2-a]pyrimidine-6-carboxamide formic acid] | 5.00 to 6.00
45 | COc1cn2nc(C)cc2cc1C(=O)Nc1ccc(N2CCN[C@@H](C)C2)nn1 [Compound 726, (S)-6-methoxy-2-methyl-N-(6-(3-methylpiperazin-1-yl)pyridazin-3-yl)pyrazolo[1,5-a]pyridine-5-carboxamide hydrochloride] | 5.00 to 6.00
46 | CCOc1cc2nn(C)cc2cc1C(=O)Nc1ccc(C2CCNCC2)nn1 [Compound 728, 6-ethoxy-2-methyl-N-(6-(piperidin-4-yl)pyridazin-3-yl)-2H-indazole-5-carboxamide hydrochloride] | 5.00 to 6.00
